{"source": "patent US9957252B2", "about": "“Metalloenzyme inhibitor compounds as fungicides” (Dow AgroSciences LLC, priority 2014, dated 2018)", "assay_type_in_all_cases": "in vivo, Mycosphaerella graminicola on wheat plants (variety Yuma)", "key": {"[1]": {"tested_on": "standard laboratory SEPTTR isolate (SI SEPTTR); Mycosphaerella graminicola; Anamorph: Septoria tritici", "assay": "Leaf blotch of wheat fungicidal activity, Type B assay (10% EC formulation in 0.1% Trycol 5941, track sprayer 200 L/ha), standard laboratory isolate", "conditions": "Zymoseptoria tritici, 72 h, wheat seedlings (Yuma)", "description": "(§1) Evaluation of Fungicidal Activity: Leaf Blotch of Wheat (Mycosphaerella graminicola; Anamorph: Septoria tritici; Bayer code SEPTTR):\n(§2) For Type A assays, technical grades of the experimental fungicides in Table 4 below were dissolved in acetone, and then mixed with nine volumes of water containing 110 ppm Triton X-100. The fungicide solutions were applied onto wheat seedlings using an automated booth sprayer. For Type B assays, emulsifiable concentrate (EC) formulations of technical grades of experimental fungicides in Table 4 below were prepared at 10% (w/v), and then mixed with 150 volumes of 0.1% Trycol 5941. The fungicide solutions were applied onto wheat seedlings using an automated track sprayer at 200 L/ha. All sprayed plants were allowed to air dry prior to further handling.\n(§3) Wheat plants (variety Yuma) were grown from seed in a greenhouse in 50% mineral soil/50% soil-less Metro mix until the first leaf was fully emerged, with 7-10 seedlings per pot. Prior to or after application of experimental fungicides, plants were inoculated either with spores of a standard laboratory SEPTTR isolate (SI SEPTTR) or with spores from a SEPTTR field isolate collected from Wellsbourne, England in 2012 (FI SEPTTR). After inoculation, the plants were kept for 3 days at 20° C. in 100% relative humidity (one day in a dark dew chamber followed by two days in a lighted dew chamber). Plants were then transferred to a 20° C. greenhouse for disease development. When disease symptoms were fully expressed on untreated plants, infection levels on treated plants were assessed on a scale of 0 to 100 percent disease severity. Percent disease control was calculated using the ratio of disease severity on treated plants relative to untreated plants."}, "[2]": {"assay": "Leaf blotch of wheat fungicidal activity, Type B assay (10% EC formulation in 0.1% Trycol 5941, track sprayer 200 L/ha), field isolate", "conditions": "Zymoseptoria tritici, 72 h, field isolate (Wellsbourne, England 2012), wheat seedlings (Yuma)", "description": "as §1, §2, §3"}, "[3]": {"tested_on": "standard laboratory SEPTTR isolate (SI SEPTTR); Mycosphaerella graminicola; Anamorph: Septoria tritici", "assay": "Leaf blotch of wheat fungicidal activity, Type A assay (technical grade in acetone/water with Triton X-100, booth sprayer), standard laboratory isolate", "conditions": "Zymoseptoria tritici, 24 h, 1 Day Protectant, wheat seedlings (Yuma), read-out: Disease control, SI SEPTTR Type A Assay (50 ppm) 1DP", "description": "as §1, §2, §3"}, "[4]": {"conditions": "3 Day Curative, read-out: Disease control, SI SEPTTR Type B Assay (100 g/ha) 3DC"}, "[5]": {"conditions": "3 Day Protectant, read-out: Disease control, SI SEPTTR Type B Assay (100 g/ha) 3DP"}, "[6]": {"conditions": "3 Day Curative, read-out: Disease control, FI SEPTTR Type B Assay (100 g/ha) 3DC"}, "[7]": {"conditions": "3 Day Protectant, read-out: Disease control, FI SEPTTR Type B Assay (100 g/ha) 3DP"}}, "note": "Read-outs that look alike come from different tables or passages of the source."}
{"smiles": "CC(C)(C)C(O)(c1cncnc1)c1ccc(-c2ccc(OCC(F)(F)F)cc2)cc1F", "note": "(stereo not drawn) [Compound 26]", "values": [{"measurement": "pest or weed control at 100 g/ha", "setting": "[1]; [4]", "result": "80 to 100", "unit": "%"}, {"measurement": "pest or weed control at 100 g/ha", "setting": "[1]; [5]", "result": "80 to 100", "unit": "%"}, {"measurement": "pest or weed control at 100 g/ha", "setting": "[2]; [6]", "result": "80 to 100", "unit": "%"}, {"measurement": "pest or weed control at 100 g/ha", "setting": "[2]; [7]", "result": "80 to 100", "unit": "%"}, {"measurement": "pest or weed control at 50 ppm", "setting": "[3]", "result": "80 to 100", "unit": "%"}]}
{"smiles": "CC(C)(C)C(O)(c1ccc(-c2ccc(C3(C#N)CC3)cc2)cc1)c1cncnc1", "note": "(stereo not drawn) [Compound 32]", "values": [{"measurement": "pest or weed control at 100 g/ha", "setting": "[1]; [4]", "result": "80 to 100", "unit": "%"}, {"measurement": "pest or weed control at 100 g/ha", "setting": "[1]; [5]", "result": "80 to 100", "unit": "%"}, {"measurement": "pest or weed control at 100 g/ha", "setting": "[2]; [6]", "result": "60 to 79", "unit": "%"}, {"measurement": "pest or weed control at 100 g/ha", "setting": "[2]; [7]", "result": "80 to 100", "unit": "%"}, {"measurement": "pest or weed control at 50 ppm", "setting": "[3]", "result": "80 to 100", "unit": "%"}]}
{"smiles": "CC(C)(C)C(O)(c1ccc(-c2ccc(OCC(F)(F)F)cc2)cc1)c1cncnc1", "note": "(stereo not drawn) [Compound 14]", "values": [{"measurement": "pest or weed control at 100 g/ha", "setting": "[1]; [4]", "result": "80 to 100", "unit": "%"}, {"measurement": "pest or weed control at 100 g/ha", "setting": "[1]; [5]", "result": "80 to 100", "unit": "%"}, {"measurement": "pest or weed control at 100 g/ha", "setting": "[2]; [6]", "result": "80 to 100", "unit": "%"}, {"measurement": "pest or weed control at 100 g/ha", "setting": "[2]; [7]", "result": "60 to 79", "unit": "%"}, {"measurement": "pest or weed control at 50 ppm", "setting": "[3]", "result": "80 to 100", "unit": "%"}]}
